In the oligonucleotide strings, read from the 5' end, every base follows the letter of its sugar. An asterisk marks phosphorothioate; unmarked linkages are phosphodiester. Other units and linkages are bracketed, terminal groups are in braces. A string of capitals states the bases alone. {NAG37} = tridentate N-acetyl-galactosamine targeting ligand, structure (NAG37)s; [invAb] = inverted abasic unit; m = 2'-O-methyl; f = 2'-fluoro
Tests used:
ANGPTL3 gene [1] = assay: Example 4: serum total cholesterol in mice; assay type: in vivo, C57bl/6 mice
Protocol: To assess the in vivo activity of ANGPTL3 RNAi agents that are designed to target additional positions on the ANGPTL3 gene, six- to eight-week-old female C57bl/6 mice were used. Pre-dose serum samples were taken at day −1 after a four hour fast. At day 1, each mouse was given a single subcutaneous administration of 200 μl containing either 1 mg/kg (mpk) or 0.5 mg/kg (mpk) of an ANGPTL3 RNAi agent in D5W (dextrose in 5% water), or control (D5W) with no RNAi agent, according to the dosing groups recited in Table 17.
(§1) Each of the RNAi agents included a modified sequence and an N-acetyl-galactosamine-containing targeting ligand conjugated to the 5′ terminal end of the sense strand. (See Tables 3, 4, and 5 for modified sequences and targeting ligand structures). The injections were performed between the skin and muscle (i.e. subcutaneous injections) into the loose skin over the neck and shoulder area. Three (3) mice in each group were tested (n=3). Serum was collected on days 8, 15, 22, 29, and day 43 (Groups 1-3, 9, and 11-13 only). Mice were fasted for four hours prior to each collection. ANGPTL3 protein levels in serum were measured by ELISA assay (R&D Systems), according to the manufacturer's recommendations. Triglycerides, high-density lipoprotein (HDL), and total cholesterol in serum were measured on a Cobas® Integra 400 (Roche Diagnostics), according to the manufacturer's recommendations.
(§2) The ANGPTL3 protein levels, triglyceride levels, HDL levels, and total cholesterol levels for each animal were normalized. For normalization, the level of ANGPTL3 protein, triglyceride, HDL, and total cholesterol, respectively, for each animal at a time point, was divided by the pre-treatment level of expression in that animal (in this case at day −1) to determine the ratio of expression “normalized to pre-treatment.” Expression at a specific time point was then normalized to the D5W control group by dividing the “normalized to pre-treatment” ratio for an individual animal by the mean “normalized to pretreatment” ratio of all mice in the D5W control group.

ANGPTL3 gene [2] = assay: Example 3: serum triglycerides in mice; assay type: in vivo
Protocol: (§3) To assess the in vivo activity of ANGPTL3 RNAi agents that are designed to target positions 921 and 922 on the ANGPTL3 gene, six- to eight-week-old female C57bl/6 mice were used. Pre-dose serum samples were taken at day −1 after a four hour fast. At day 1, each mouse was given a single subcutaneous administration of 200 μl containing either 1 mg/kg (mpk) of an ANGPTL3 RNAi agent in D5W (dextrose in 5% water), or control (D5W) with no RNAi agent, according to the dosing groups recited in Table 12.
as §1, with “Serum was collected on days 8, 15, 22, 29, and day 43 (Groups 1-3, 9, and 11-13 only).” left out
as §2

ANGPTL3 gene [3] = assay: Example 3: serum HDL in mice; assay type: in vivo
Protocol: as §3
as §1, with “Serum was collected on days 8, 15, 22, 29, and day 43 (Groups 1-3, 9, and 11-13 only).” left out
as §2

ANGPTL3 gene [4] = assay: Example 7: serum HDL in mice; assay type: in vivo; set-up: key: ratio: (level/pre-treatment day -1 level) ÷ mean of D5W control group; conditions: 0.5 mg/kg single SC injection day 1, female C57bl/6 mice, n=3, ratio to D5W control
Protocol: (§4) To further assess the in vivo activity of additional ANGPTL3 RNAi agents that are designed to target position 304 on the ANGPTL3 gene, six- to eight-week-old female C57bl/6 mice were used. Pre-dose serum samples were taken at day −1 after a four hour fast. At day 1, each mouse was given a single subcutaneous administration of 200 μl containing 0.5 mg/kg (mpk) of an ANGPTL3 RNAi agent in D5W (dextrose in 5% water), or control (D5W) with no RNAi agent, according to the dosing groups recited in Table 31.
as §1, with “22,” for “22, 29,”, “29.” for “day 43 (Groups 1-3, 9, and 11-13 only).”, “Triglycerides, total cholesterol,” for “Triglycerides,”, “low-density lipoprotein (LDL)” for “total cholesterol”
(§5) The ANGPTL3 protein levels, triglyceride levels, total cholesterol levels, HDL levels, and LDL levels for each animal were normalized. For normalization, the level of ANGPTL3 protein, triglyceride, HDL, and total cholesterol, respectively, for each animal at a time point, was divided by the pre-treatment level of expression in that animal (in this case at day −1) to determine the ratio of expression “normalized to pre-treatment.” Expression at a specific time point was then normalized to the D5W control group by dividing the “normalized to pre-treatment” ratio for an individual animal by the mean “normalized to pretreatment” ratio of all mice in the D5W control group.

ANGPTL3 protein [5] = assay: Example 3: serum ANGPTL3 protein by ELISA in mice; assay type: in vivo, C57bl/6 mice; conditions: 1.0 mg/kg single subcutaneous dose on day 1, serum, female C57bl/6 mice
Protocol: as §3
as §1, with “Serum was collected on days 8, 15, 22, 29, and day 43 (Groups 1-3, 9, and 11-13 only).” left out
as §2

ANGPTL3 protein [6] = assay: Example 7: serum ANGPTL3 protein by ELISA in mice; assay type: in vivo, C57bl/6 mice; set-up: key: ratio: (level/pre-treatment day -1 level) ÷ mean of D5W control group
Protocol: as §4
as §1, with “22,” for “22, 29,”, “29.” for “day 43 (Groups 1-3, 9, and 11-13 only).”, “Triglycerides, total cholesterol,” for “Triglycerides,”, “low-density lipoprotein (LDL)” for “total cholesterol”
as §5

[7] = Day 8, 1.0 mg/kg single SC injection on day 1, n=3
[8] = Day 15, 1.0 mg/kg single SC injection on day 1, n=3
[9] = Day 22, 1.0 mg/kg single SC injection on day 1, n=3
[10] = Day 29, 1.0 mg/kg single SC injection on day 1, n=3
[11] = Day 43, 1.0 mg/kg single SC injection on day 1, n=3
[12] = Day 8, 1.0 mg/kg single subcutaneous dose on day 1, female C57bl/6 mice
[13] = Day 15, 1.0 mg/kg single subcutaneous dose on day 1, female C57bl/6 mice
[14] = Day 22, 1.0 mg/kg single subcutaneous dose on day 1, female C57bl/6 mice
[15] = Day 29, 1.0 mg/kg single subcutaneous dose on day 1, female C57bl/6 mice
[16] = Day 8, 0.5 mg/kg single SC injection on day 1, n=3
[17] = Day 15, 0.5 mg/kg single SC injection on day 1, n=3
[18] = Day 22, 0.5 mg/kg single SC injection on day 1, n=3
[19] = Day 29, 0.5 mg/kg single SC injection on day 1, n=3

## AD05418: RNAi agent duplex: antisense AM07159-AS, sense AM07158-SS (antisense mU*fU*mU*fGmAfAmUfUmAfAmUfGmUfCmCfAmUfGmGfG*mU; sense {NAG37}*[invAb]*mAmCmCmCmAmUmGmGfAfCfAmUmUmAmAmUmUmCmAmAmA*[invAb])
ANGPTL3 gene [1]; [7]
  Avg Total Chol, normalized to pre-treatment and control: 0.818
ANGPTL3 gene [1]; [8]
  Avg Total Chol, normalized to pre-treatment and control: 0.761
ANGPTL3 gene [1]; [9]
  Avg Total Chol, normalized to pre-treatment and control: 0.915
ANGPTL3 gene [1]; [10]
  Avg Total Chol, normalized to pre-treatment and control: 0.853
ANGPTL3 gene [1]; [11]
  Avg Total Chol, normalized to pre-treatment and control: 1.002
ANGPTL3 gene [2]; [12]
  Avg TG (Average Triglycerides Normalized to Pre-Treatment and Control): 0.718
ANGPTL3 gene [2]; [13]
  Avg TG (Average Triglycerides Normalized to Pre-Treatment and Control): 0.791
ANGPTL3 gene [2]; [14]
  Avg TG (Average Triglycerides Normalized to Pre-Treatment and Control): 0.855
ANGPTL3 gene [2]; [15]
  Avg TG (Average Triglycerides Normalized to Pre-Treatment and Control): 0.881
ANGPTL3 gene [3]; [12]
  Avg HDL (Average HDL Normalized to Pre-Treatment and Control): 0.766
ANGPTL3 gene [3]; [13]
  Avg HDL (Average HDL Normalized to Pre-Treatment and Control): 0.823
ANGPTL3 gene [3]; [14]
  Avg HDL (Average HDL Normalized to Pre-Treatment and Control): 0.910
ANGPTL3 gene [3]; [15]
  Avg HDL (Average HDL Normalized to Pre-Treatment and Control): 0.916
ANGPTL3 gene [4]; Day 8
  Avg HDL, normalized to pre-treatment and control: 0.907
ANGPTL3 gene [4]; Day 15
  Avg HDL, normalized to pre-treatment and control: 0.857
ANGPTL3 gene [4]; Day 22
  Avg HDL, normalized to pre-treatment and control: 0.910
ANGPTL3 gene [4]; Day 29
  Avg HDL, normalized to pre-treatment and control: 1.048
ANGPTL3 protein [5]; Day 8
  Avg ANGPTL3 (Average ANGPTL3 Protein Normalized to Pre-Treatment and Control): 0.236
ANGPTL3 protein [5]; Day 15
  Avg ANGPTL3 (Average ANGPTL3 Protein Normalized to Pre-Treatment and Control): 0.290
ANGPTL3 protein [5]; Day 22
  Avg ANGPTL3 (Average ANGPTL3 Protein Normalized to Pre-Treatment and Control): 0.394
ANGPTL3 protein [5]; Day 29
  Avg ANGPTL3 (Average ANGPTL3 Protein Normalized to Pre-Treatment and Control): 0.517
ANGPTL3 protein [6]; [16]
  Avg ANGPTL3, normalized to pre-treatment and control: 0.534
ANGPTL3 protein [6]; [17]
  Avg ANGPTL3, normalized to pre-treatment and control: 0.565
ANGPTL3 protein [6]; [18]
  Avg ANGPTL3, normalized to pre-treatment and control: 0.639
ANGPTL3 protein [6]; [19]
  Avg ANGPTL3, normalized to pre-treatment and control: 0.758

## AD05488: RNAi agent duplex: antisense AM07235-AS, sense AM07234-SS (antisense mU*fA*mC*fUmGfAmUfCmAfAmAfUmAfUmGfUmUfGmAfG*mC; sense {NAG37}*[invAb]*mGmCmUmCmAmAmCmAfUfAfUmUmUmGmAmUmCmAmGmUmA*[invAb])
ANGPTL3 gene [1]; [7]
  Avg Total Chol, normalized to pre-treatment and control: 0.827
ANGPTL3 gene [1]; [8]
  Avg Total Chol, normalized to pre-treatment and control: 0.667
ANGPTL3 gene [1]; [9]
  Avg Total Chol, normalized to pre-treatment and control: 0.759
ANGPTL3 gene [1]; [10]
  Avg Total Chol, normalized to pre-treatment and control: 0.683
ANGPTL3 gene [1]; [11]
  Avg Total Chol, normalized to pre-treatment and control: 0.837
ANGPTL3 gene [4]; Day 8
  Avg HDL, normalized to pre-treatment and control: 0.783
ANGPTL3 gene [4]; Day 15
  Avg HDL, normalized to pre-treatment and control: 0.793
ANGPTL3 gene [4]; Day 22
  Avg HDL, normalized to pre-treatment and control: 0.780
ANGPTL3 gene [4]; Day 29
  Avg HDL, normalized to pre-treatment and control: 0.886
ANGPTL3 protein [6]; [16]
  Avg ANGPTL3, normalized to pre-treatment and control: 0.339
ANGPTL3 protein [6]; [17]
  Avg ANGPTL3, normalized to pre-treatment and control: 0.379
ANGPTL3 protein [6]; [18]
  Avg ANGPTL3, normalized to pre-treatment and control: 0.346
ANGPTL3 protein [6]; [19]
  Avg ANGPTL3, normalized to pre-treatment and control: 0.469

## AD05307: RNAi agent duplex: antisense AM07001-AS, sense AM07000-SS (chain 1 mU*fU*mU*fGmAfAmUfUmAfAmUfGmUfCmCfAmUfGmGmG*mC; chain 2 {NAG37}*[invAb]*mGmCmCmCmAmUmGmGfAfCfAmUmUmAmAmUmUmCmAmAmA*[invAb])
ANGPTL3 gene [2]; [12]
  Avg TG (Average Triglycerides Normalized to Pre-Treatment and Control): 0.786
ANGPTL3 gene [2]; [13]
  Avg TG (Average Triglycerides Normalized to Pre-Treatment and Control): 0.692
ANGPTL3 gene [2]; [14]
  Avg TG (Average Triglycerides Normalized to Pre-Treatment and Control): 0.903
ANGPTL3 gene [2]; [15]
  Avg TG (Average Triglycerides Normalized to Pre-Treatment and Control): 0.852
ANGPTL3 gene [3]; [12]
  Avg HDL (Average HDL Normalized to Pre-Treatment and Control): 0.916
ANGPTL3 gene [3]; [13]
  Avg HDL (Average HDL Normalized to Pre-Treatment and Control): 0.856
ANGPTL3 gene [3]; [14]
  Avg HDL (Average HDL Normalized to Pre-Treatment and Control): 0.913
ANGPTL3 gene [3]; [15]
  Avg HDL (Average HDL Normalized to Pre-Treatment and Control): 1.053
ANGPTL3 protein [5]; Day 8
  Avg ANGPTL3 (Average ANGPTL3 Protein Normalized to Pre-Treatment and Control): 0.323
ANGPTL3 protein [5]; Day 15
  Avg ANGPTL3 (Average ANGPTL3 Protein Normalized to Pre-Treatment and Control): 0.311
ANGPTL3 protein [5]; Day 22
  Avg ANGPTL3 (Average ANGPTL3 Protein Normalized to Pre-Treatment and Control): 0.346
ANGPTL3 protein [5]; Day 29
  Avg ANGPTL3 (Average ANGPTL3 Protein Normalized to Pre-Treatment and Control): 0.486

Source: patent US12729377B2, “RNAi agents and compositions for inhibiting expression of angiopoietin-like 3 (ANGPTL3), and methods of use” (Arrowhead Pharmaceuticals, Inc., priority 2017, dated 2026)
